Data taken from article PMC6478823, “A suite of phenotypic assays to ensure pipeline diversity when prioritizing drug-like Cryptosporidium growth inhibitors” (Nature Communications, 2019).

Key:
[1] = test system: C. parvum; assay type: cell-based, Cryptosporidium parvum; settings: compound at EC90; for Invasion Assay: Mean % Inhibition (parasites), Average: average of replicates; for Invasion Assay: Mean % Inhibition (parasites), Replicate 1a: single biological replicate 1; for Invasion Assay: Mean % Inhibition (parasites), Replicate 2a: single biological replicate 2
[2] = test system: C. parvum; experiment: DNA replication assay (EdU incorporation); assay type: cell-based, Cryptosporidium parvum; settings: compound at EC90; for DNA Synthesis Assay: Mean % Inhibition of EdU-labeling (normalized to parasite numbers), Average: average of replicates; for DNA Synthesis Assay: Mean % Inhibition of EdU-labeling (normalized to parasite numbers), Replicate 1: single replicate 1; for DNA Synthesis Assay: Mean % Inhibition of EdU-labeling (normalized to parasite numbers), Replicate 2: single replicate 2; for DNA Synthesis Assay: Mean % Inhibition of EdU-labeling (normalized to parasite numbers), Replicate 3: single replicate 3
[3] = test system: C. parvum DMC1 expression; experiment: Sexual differentiation assay (DMC1 expression); assay type: cell-based, Cryptosporidium parvum; settings: compound at asexual EC90, 48-72 h; for Asexual to sexual differentiation: Mean % DMC1 inhibition (normalized to host nuclei), Average: average of replicates; for Asexual to sexual differentiation: Mean % DMC1 inhibition (normalized to host nuclei), Replicate 1a: single replicate 1; for Asexual to sexual differentiation: Mean % DMC1 inhibition (normalized to host nuclei), Replicate 2a: single replicate 2
How it was run: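 Compounds applied at their previously determined asexual-assay EC90, and % inhibition of DMC1 expression reported. Readout: 4% paraformaldehyde fixation, immunostaining with mAb 1H10G7 plus fluorescein-lectin and Hoechst, tiled 20× imaging in 384-well format, ImageJ analysis counting lectin-positive then DMC1-positive parasites.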

[4] = test system: C. parvum; experiment: Egress, motility, reinvasion assay (PV ratio); settings: compound at EC90; for Egress and Reinvasion Assay: Mean PV ratios (19.5h:6h), Average: average of replicates; for Egress and Reinvasion Assay: Mean PV ratios (19.5h:6h), Replicate 1a: single replicate 1; for Egress and Reinvasion Assay: Mean PV ratios (19.5h:6h), Replicate 2a: single replicate 2; for Egress and Reinvasion Assay: Mean PV ratios (19.5h:6h), Replicate 3a: single replicate 3; for Egress and Reinvasion Assay: Mean PV ratios (19.5h:6h), Replicate 4a: single replicate 4
Method: For quantification of parasitophorous vacuoles over time, HCT-8 cells were grown to greater than 90% confluence in 384-well plates and infected with 11,000 oocysts after triggering excystation.

[5] = yes/no grouping by phenotypic assay result

SMILES	Invasion Assay: Mean % Inhibition (parasites), Average [1] [%]	Invasion Assay: Mean % Inhibition (parasites), Replicate 1a [1] [%]	Invasion Assay: Mean % Inhibition (parasites), Replicate 2a [1] [%]	DNA Synthesis Assay: Mean % Inhibition of EdU-labeling (normalized to parasite numbers), Average [2] [%]	DNA Synthesis Assay: Mean % Inhibition of EdU-labeling (normalized to parasite numbers), Replicate 1 [2] [%]	DNA Synthesis Assay: Mean % Inhibition of EdU-labeling (normalized to parasite numbers), Replicate 2 [2] [%]	Asexual to sexual differentiation: Mean % DMC1 inhibition (normalized to host nuclei), Average [3] [%]	Asexual to sexual differentiation: Mean % DMC1 inhibition (normalized to host nuclei), Replicate 1a [3] [%]	Asexual to sexual differentiation: Mean % DMC1 inhibition (normalized to host nuclei), Replicate 2a [3] [%]	Egress and Reinvasion Assay: Mean PV ratios (19.5h:6h), Average [4]	Egress and Reinvasion Assay: Mean PV ratios (19.5h:6h), Replicate 1a [4]	Egress and Reinvasion Assay: Mean PV ratios (19.5h:6h), Replicate 2a [4]	Egress and Reinvasion Assay: Mean PV ratios (19.5h:6h), Replicate 3a [4]	Egress and Reinvasion Assay: Mean PV ratios (19.5h:6h), Replicate 4a [4]	DNA Synthesis Assay: Mean % Inhibition of EdU-labeling (normalized to parasite numbers), Replicate 3 [2] [%]	other results
O=C(Nc1ccc(Cl)c(Cl)c1)N1CCN(c2ccc3nncn3n2)CC1 [D-28]	-13.23	-5	-22	3.38	14.86	-8.10	81.40	86.90	86.80	1.28	1.01	1.19	1.91	1.01		Asexual to sexual differentiation: Mean % DMC1 inhibition (normalized to host nuclei), Replicate 3a ([3]; single replicate 3): 70.51%
Cc1cn(-c2cc(NC(=O)c3ccc(C)c(Nc4nccc(-c5cccnc5)n4)c3)cc(C(F)(F)F)c2)cn1 [Nilotinib]	-21.88	-24	-19	22.05	29.68	14.41	70.96	66.12	75.79	1.05	1.50	1.54	0.60	0.54		
O=c1[nH]c(=O)n([C@H]2C[C@H](O)[C@@H](CO)O2)cc1F [Floxuridine]	-28.03	-30	-26	20.42	15.13	27.54	-7.53	-14.02	-1.05	0.74	0.67	0.80			-10.47	Sporozoite invasion [1, 5]: no; DNA Synthesis Assay: Mean % Inhibition of EdU-labeling (normalized to parasite numbers), Replicate 4 ([2]; single replicate 4): 28.26%; DNA Synthesis Assay: Mean % Inhibition of EdU-labeling (normalized to parasite numbers), Replicate 5 ([2]; single replicate 5): 37.17%; DNA Synthesis Assay: Mean % Inhibition of EdU-labeling (normalized to parasite numbers), Replicate 6 ([2]; single replicate 6): 24.87%; DNA synthesis [2, 5]: no
Cc1cc(/C=C/c2ccc3cc(N(C)C)ccc3[n+]2C)c(C)n1-c1ccccc1 [Pyrvinium pamoate]	25.69	30	22		94.57	70.33	68.07	51.94	84.21	0.61	0.97	0.85	0.33	0.30		DNA synthesis (mean % inhibition) ([2]; EdU added 9 h post-infection for 2 h): 88.30%
CC(C)c1c(C(=O)Nc2ccccc2)c(-c2ccccc2)c(-c2ccc(F)cc2)n1CC[C@@H](O)C[C@@H](O)CC(=O)O [Atorvastatin]	-38.43	-51	-26	-4.60	-2.45	-19.78	36.34	55.77	16.91	1.88	1.94	1.82			8.45	
